Data on 18 compounds can be found in patent US5147878A, “Aminoalkoxyphenyl derivatives, process of preparation and compositions containing the same” (Sanofi, priority 1986, dated 1992).

Assay [1] relates to epinephrine-induced increase in blood-pressure (anti-α effect). The experiment in a line: Antiadrenergic properties: anti-α effect (reduction of epinephrine-induced hypertension). It counts as in vivo. On the set-up: key to anti-α effect: +: for a reduction < 50%; ++: for a reduction ≥ 50%; +++: for a reduction sub-total (almost complete reduction). Conditions: dog; for inhibition in vivo at 10 mg/kg: Canis lupus familiaris, iv, 10 mg/kg i.v., known compounds. The procedure:
(§1) The object of this test is to determine the capacity of the compounds of the invention for reducing the increase in epinephrine-induced increase in blood-pressure (anti-α effect) and the isoprenaline-induced acceleration in heart rate (anti-β effect), in dogs previously anaesthatized with pentobarbital and atropinized. For each dog, the dose of epinephrine (between 3 and 10 μg/kg) which induced a reproducible increase in the blood-pressure of approximately 133×10^2 Pa and the dose of isoprenaline (1 to 2 μg/kg) which induced a reproducible increase in the heart rate of approximately 70 beats/min. were first determined. The dose of epinephrine and of isoprenaline, determined in this manner, were injected alternately every ten minutes and, after two successive reference responses had been obtained, an amount of the test compound was administered intravenously. The percentage reduction in the hypertension induced by the test compound compared with the reference hypertension previously obtained (approximately 100 mm Hg) was recorded. In both cases, the results of the reduction in blood-pressure or in the heart rate have been expressed as follows: […]

Assay [2] relates to isoprenaline-induced acceleration in heart rate (anti-β effect). The experiment in a line: Antiadrenergic properties: anti-β effect (reduction of isoprenaline-induced tachycardia). It counts as in vivo. Details: key to anti-β effect: +: for a reduction < 50%; ++: for a reduction ≥ 50%; +++: for a reduction sub-total (almost complete reduction). Conditions: dog; for inhibition in vivo at 10 mg/kg: 10 mg/kg i.v., known compounds. As to the method:
as §1, with “the acceleration of the heart rate” for “the hypertension”, “reference tachycardia measured” for “reference hypertension”, “previously” for “previously obtained”, “(approximately 70 beats)” for “(approximately 100 mm Hg)”

The test system of a further assay is isolated rat aorta. Put plainly: Calcium inhibitory properties: contractile response to potassium-induced depolarization on isolated rat aorta. On the set-up: species or system isolated organ, male Wistar rats. Conditions: for activity at 1 µM / activity at 0.1 µM / activity at 0.01 µM / activity at 0.001 µM / activity at 10 µM: Rattus norvegicus, 1 h, read-out: % of the maximum contractional effect; for activity at 1 µM: 10^-6 M; for activity at 0.1 µM: 10^-7 M; for activity at 10 µM: 10^-5 M; for % of the maximum contractional effect: 60 min. The essentials:
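Male Wistar rat aorta strips under 2 g tension in modified Krebs-bicarbonate at 37° C, gassed with CO2/O2; contraction induced by 100 mM KCl potassium-Krebs. Compound incubated 60 min before repeat K+ depolarization; response expressed as % of maximum contraction before compound.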

Setting [3] is: head printed "10^-" (exponent missing; first of three columns before 10^-6 M).

Structures can show the parent of a compound that is named as a salt. Where only a bound is given, the exact number is not on record here.

For `CCN(CC)CCCOc1ccc(S(=O)(=O)c2c(C(C)C)cn3ccccc23)cc1` [Ex. 15, 2-Isopropyl-1-{4-[3-(diethylamino)propyloxy]benzenesulphonyl}indolizine], the anti-α effect entry in assay [1] (2.5 mg/kg i.v.) is listed as “+++”. Further, the anti-β effect result in assay [2] (2.5 mg/kg i.v.) is given as “+++”. In the assay on isolated rat aorta, the activity at 1 µM was found to be 18.4% and the activity at 0.1 µM is 71.2%.
Consider `CCCc1oc2ccccc2c1S(=O)(=O)c1ccc(OCCCN(C)CCc2ccc(OC)c(OC)c2)cc1` [Ex. 67, 2-n-Propyl-3-[4-{3-[N-methyl-N-(3,4-dimethoxy-β-phenethyl)amino]propyloxy}benzenesulphonyl]benzofuran oxalate], for which the anti-α effect result in assay [1] (1.3 mg/kg i.v.) was “+++”. The inhibition in vivo at 1.3 mg/kg in assay [2] (Canis lupus familiaris, iv, 1.3 mg/kg i.v.) was less than 50%. In addition, in the assay with isolated rat aorta, the activity at 1 µM is 9.3% and the activity at 0.1 µM was 38.3%. Further, the activity at 0.01 µM in the assay on isolated rat aorta (10^-8 M) came to 80.9%.
As for `CCc1cn2ccccc2c1S(=O)(=O)c1ccc(OCCCNCCc2ccc(OC)c(OC)c2)cc1` [Ex. 27, 2-Ethyl-1-{4-}3-(3,4-dimethoxy-β-phenethylamino)propyloxy]benzenesulphonyl}indolizine oxalate], the anti-α effect result in assay [1] (1 mg/kg i.v.) is reported as “+++”. The same compound came in with an inhibition in vivo at 1 mg/kg in assay [2] (Canis lupus familiaris, iv, 1 mg/kg i.v.) not below 50%. Further, in the assay with isolated rat aorta, the activity at 0.1 µM was determined as 7.7%. The activity at 0.01 µM in the assay on isolated rat aorta (10^-8 M) was determined as 58.9%. In the assay on isolated rat aorta (10^-9 M), the activity at 0.001 µM came out at 81.6%.
The compound `CCCN(CCC)CCCOc1ccc(C(=O)c2c(CC)cn3ccccc23)cc1` [Compound E, reference compound] displayed an inhibition in vivo at 10 mg/kg in assay [1] of less than 50%. In assay [2] (Canis lupus familiaris, iv), this compound displayed an inhibition in vivo at 10 mg/kg not below 50%. Further, in the assay with isolated rat aorta, the activity at 1 µM came out at 37.9% and the activity at 0.1 µM is 89.1%.
`CCCCN(C)CCCOc1ccc(S(=O)(=O)c2c(CC)cn3ccccc23)cc1.O=C(O)C(=O)O` [Ex. 20, 2-Ethyl-1-{4-[3-(N-methyl-N-butylamino)propyloxy]benzenesulphonyl}indolizine oxalate]: in assay [1] (5 mg/kg i.v.), the anti-α effect result is “+++”. In addition, in assay [2] (5 mg/kg i.v.), the anti-β effect entry is “+++”. For the same compound, in the assay on isolated rat aorta, the activity at 1 µM amounted to 6.8% and the activity at 0.1 µM is 60%.
For the compound `COc1ccc(CCN(C)CCCCOc2ccc(S(=O)(=O)c3c(C(C)C)cn4ccccc34)cc2)cc1OC` [Ex. 42, 2-Isopropyl-1-[4-{4-[N-methyl-N-(3,4-dimethoxy-β-phenethyl)amino]butyloxy]benzenesulphonyl]indolizine], the anti-α effect entry in assay [1] (0.1 mg/kg i.v.) is recorded as “+++”. For the same compound, the anti-β effect entry in assay [2] (0.1 mg/kg i.v.) is reported as “+++”. Also, in the assay with isolated rat aorta, the activity at 0.1 µM was found to be 21.1%. Also, the activity at 0.01 µM in the assay on isolated rat aorta (10^-8 M) came to 53.9%. Further, the activity at 0.001 µM in the assay on isolated rat aorta (10^-9 M) worked out at 78.8%.
Take `CCCCN(CCCC)CCCOc1ccc(S(=O)(=O)c2cc3ccccc3nc2C(C)C)cc1.O=C(O)C(=O)O` [Ex. 74, 2-isopropyl-3-{4-[3-(di-n-butylamino)propyloxy]benzenesulphonyl}quinoline oxalate]: in assay [1] (1.2 mg/kg i.v.), the anti-α effect entry is on record as “+++”. In assay [2] (Canis lupus familiaris, iv, 1.2 mg/kg i.v.), this compound yielded an inhibition in vivo at 1.2 mg/kg of less than 50%. Further, in the assay with isolated rat aorta, the activity at 1 µM amounted to 22.4% and the activity at 0.1 µM was determined as 67.3%.
For the compound `COc1ccc(CCN(C)CCCOc2ccc(S(=O)(=O)c3ccoc3C(C)C)cc2)cc1OC` [Ex. 77, 2-isopropyl-3-[4-{3-[N-methyl-N-(3,4-dimethoxy-β-phenethyl)amino]propyloxy}benzenesulphonyl]furan oxalate], the anti-α effect entry in assay [1] (3 mg/kg i.v.) is given as “+++”. This compound also registered an inhibition in vivo at 3 mg/kg in assay [2] (Canis lupus familiaris, iv, 3 mg/kg i.v.) not below 50%. In the assay on isolated rat aorta, the activity at 0.1 µM came out at 43.2%. Also, the activity at 0.01 µM in the assay with isolated rat aorta (10^-8 M) was 86%. Further, the activity at 0.001 µM in the assay on isolated rat aorta (10^-9 M) was 89.8%.
As for `COc1ccc(CCN(C)CCCOc2ccc(Sc3c(C(C)C)cn4ccccc34)cc2)cc1OC` [Ex. 53, 1-[4-{3-[N-methyl-N-(3,4-dimethoxy-β-phenethyl)amino]propyloxy}phenylthio]-2-isopropylindolizine oxalate], the anti-α effect result in assay [1] (6.1 mg/kg i.v.) is recorded as “+++”. In assay [2] (Canis lupus familiaris, iv, 6.1 mg/kg i.v.), this compound came in with an inhibition in vivo at 6.1 mg/kg of less than 50%. In addition, in the assay with isolated rat aorta, the activity at 10 µM is 59.8% and the activity at 1 µM is 75.4%.
In the case of `COc1cccc(CCN(C)CCCOc2ccc(S(=O)(=O)c3c(C(C)C)cn4ccccc34)cc2)c1` [Ex. 46, 2-Isopropyl-1-[4-{3-[N-methyl-N-(3-methoxy-β-phenethyl)amino]propyloxy}benzenesulphonyl]indolizine acid oxalate], the anti-α effect entry in assay [1] (0.1 mg/kg i.v.) is given as “+++”. Further, the anti-β effect entry in assay [2] (0.1 mg/kg i.v.) was “+++”. Besides, in the assay on isolated rat aorta, the activity at 0.1 µM was found to be 4.3%. Moreover, the activity at 0.01 µM with isolated rat aorta (10^-8 M) was determined as 49.5%. The activity at 0.001 µM in the assay with isolated rat aorta (10^-9 M) came to 78.1%.
In the case of `CCCCN(CCCC)CCCOc1ccc(Sc2c(C(C)C)cn3ccccc23)cc1.O=C(O)C(=O)O` [Ex. 52, 1-{4-[3-(di-n-butylamino)propyloxy]phenylthio}-2-isopropylindolizine oxalate], the anti-α effect result in assay [1] (5.4 mg/kg i.v.) is “+++”. This compound registered an inhibition in vivo at 5.4 mg/kg in assay [2] (Canis lupus familiaris, iv, 5.4 mg/kg i.v.) not below 50%. In the assay on isolated rat aorta, the activity at 10 µM turned out to be 69.2% and the activity at 1 µM was determined as 81.2%.
`CCCCN(CCCC)CCCOc1ccc(C(=O)c2c(CC)cn3ccccc23)cc1` [Compound F, reference compound]: testing at 10 mg/kg in assay [2] (Canis lupus familiaris, iv) gave an inhibition in vivo of 0%.
Regarding `CCCCc1oc2ccccc2c1S(=O)(=O)c1ccc(OCCN(CC)CC)cc1` [Compound A, reference compound], the inhibition in vivo at 10 mg/kg in assay [1] was less than 50%. In addition, in assay [2] (Canis lupus familiaris, iv), the inhibition in vivo at 10 mg/kg worked out at 0%. For the same compound, in the assay on isolated rat aorta, the activity at 1 µM amounted to 25% and the activity at 0.1 µM was 60.3%. Also, the activity at 0.01 µM with isolated rat aorta (10^-8 M) worked out at 84.3%.
Turning to `COc1ccc(CCN(C)CC(O)COc2ccc(S(=O)(=O)c3c(C(C)C)cn4ccccc34)cc2)cc1OC` (racemic) [Ex. 50, hydrochloride], the anti-α effect result in assay [1] (0.1 mg/kg i.v.) is “+++”. Besides, in assay [2] (0.1 mg/kg i.v.), the anti-β effect result is “+++”.
As for `COc1cc(CCN(C)CCCOc2ccc(S(=O)(=O)c3c(C(C)C)c4ccccc4n3C)cc2)cc(OC)c1` [Ex. 146, 1-methyl-3-isopropyl-2-[4-{3-[N-methyl-N-(3,5-dimethoxy-β-phenethyl)amino]propyloxy}benzenesulphonyl]indole acid oxalate], the anti-α effect result in assay [1] (0.07 mg/kg i.v.) is “+++”. Besides, in assay [2] (Canis lupus familiaris, iv, 0.07 mg/kg i.v.), the inhibition in vivo at 0.07 mg/kg was not below 50%.
As to `COc1ccc(CCN(C)CCCOc2ccc(S(=O)(=O)c3ccncc3)cc2)cc1OC` [Ex. 61, 4-[4-{3-[N-methyl-N-(3,4-dimethoxy-βphenethyl)amino]propyloxy}benzenesulphonyl]pyridine oxalate], in the assay on isolated rat aorta, the activity at 1 µM was determined as 70.7% and the activity at 0.1 µM was found to be 88%. In addition, the “% of the maximum contractional effect” value with isolated rat aorta (setting [3]) is 14%.
As to `COc1ccc(CCN(C)CCCOc2ccc(Sc3ccncc3)cc2)cc1OC` [Ex. 57, 4-[4-{3-[N-methyl-N-(3,4-dimethoxy-β-phenethyl)amino]propyloxy}phenylthio]pyridine oxalate], in the assay on isolated rat aorta, the activity at 1 µM was found to be 59% and the activity at 0.1 µM stood at 85%. Further, in the assay with isolated rat aorta (setting [3]), the “% of the maximum contractional effect” value turned out to be 3.1%.
As for `COc1cc(CCN(C)CCCOc2ccc(S(=O)(=O)c3c(C(C)C)cn4ccccc34)cc2)cc(C)c1OC.O=C(O)C(=O)O` [Ex. 135, 2-isopropyl-1-[4-{3-[N-methyl-N-(3,4-dimethoxy-5-methyl-β-phenethyl)amino]propyloxy}benzenesulphonyl]indolizine acid oxalate], the “% of the maximum contractional effect” value with isolated rat aorta (10^-8 M, 0.01 µM) came out at 21.1%; in the assay on isolated rat aorta (10^-9 M, 0.001 µM), 58.5%; in the assay on isolated rat aorta (10^-10 M, 0.0001 µM) it was 78.9%.
